# Reference: PMC3914891, “Pentacyclic Nitrofurans with In Vivo Efficacy and Activity against Nonreplicating Mycobacterium tuberculosis” (PLoS ONE, 2014)
# Read-outs that look alike come from different tables or passages of the source. Marks after values point to notes of the source that are not given here.
# Legend:
# [1] = mouse plasma; ref footnote g, values reported in reference (number not given); cited from earlier work
# [2] = system: Vero cells; conditions: cited from earlier work
# [3] = system: Vero cells; test: In vitro cytotoxicity against Vero cells
# [4] = system: M. tuberculosis; test: MIC determination, microbroth dilution, M. tuberculosis; type: cell-based, Mycobacterium tuberculosis
# [5] = system: M. tuberculosis H37Rv; test: Minimum bactericidal concentration determination; type: cell-based, Mycobacterium tuberculosis
# [6] = system: M. kansasii (ATCC 12478); test: MIC, non-tuberculosis mycobacteria: M. kansasii; type: cell-based; conditions: Mycobacterium kansasii, ATCC12478, 168 h; broth dilution, visual inspection, 7 days; read-out: Minimum Inhibitory Concentration, M. kansasii
# [7] = system: M. abscessus (ATCC 19977); test: MIC, non-tuberculosis mycobacteria: M. abscessus; type: cell-based; conditions: Mycobacteroides abscessus, ATCC19977, 72 h, read-out: Minimum Inhibitory Concentration, M. abscessus
# [8] = system: Streptococcus pneumoniae (R6); test: MIC, spectrum of activity: S.pn; type: cell-based; conditions: read-out: Minimum Inhibitory Concentration, S. Pn.
# [9] = physchem; conditions: pH 7.4, aqueous buffer
# [10] = system: Staphylococcus aureus (NRS70); test: MIC, spectrum of activity: MRSA; type: cell-based; conditions: read-out: Minimum Inhibitory Concentration, MRSA
# [11] = system: Bacillus anthracis sterne 34F2; test: microbe, parasite or virus in culture; type: cell-based; conditions: STERNE34F2, read-out: Minimum Inhibitory Concentration, B.a.
# [12] = system: Enterococcus faecalis (ATCC 33186); test: MIC, spectrum of activity: E.f.; type: cell-based; conditions: ATCC33186, read-out: Minimum Inhibitory Concentration, E.f.
# [13] = system: M. ulcerans (ATCC 35840); test: MIC by agar proportion method: M. ulcerans; type: cell-based; conditions: Mycobacterium ulcerans, ATCC35840, 672 h; agar proportion method, 4 weeks; read-out: Minimum Inhibitory Concentration, M. ulcerans
# [14] = system: E. coli K12 ∆tolC; type: cell-based; conditions: E. coli K12 ∆tolC (efflux pump deficient)
# [15] = system: Streptococcus pyogenes (ATCC 700294); test: MIC, spectrum of activity: S.py; type: cell-based; conditions: ATCC700294, read-out: Minimum Inhibitory Concentration, S. Py.
# [16] = In vitro cytotoxicity against Vero cells; conditions: African green monkey, Vero cells (kidney epithelial cells, ATCC CCL-81)
# [17] = system: M. tuberculosis strain H37Rv; test: Checkerboard synergy assay; type: cell-based, Mycobacterium tuberculosis; conditions: for MIC: Mycobacterium tuberculosis, 168 h, read-out: MIC Alone
# [18] = system: Staphylococcus aureus (ATCC 29213); test: MIC, spectrum of activity: S.a.; type: cell-based; conditions: ATCC29213, read-out: Minimum Inhibitory Concentration, S.a
# [19] = system: Burkholderia cepacia (ATCC 25416); test: MIC, spectrum of activity: B.c.; type: cell-based; conditions: ATCC25416, read-out: Minimum Inhibitory Concentration, B.c.
# [20] = system: Escherichia coli (ATCC 700926); test: MIC, spectrum of activity: E.c.; type: cell-based; conditions: ATCC700926, read-out: Minimum Inhibitory Concentration, E.c.
# [21] = system: H37Rv-wt; test: microbe, parasite or virus in culture; type: cell-based, M. tuberculosis; conditions: Mycobacterium tuberculosis
# [22] = system: M. avium (ATCC 25291); test: MIC, non-tuberculosis mycobacteria: M. avium; type: cell-based; conditions: Mycobacterium avium, ATCC25291, 168 h; broth dilution, visual inspection, 7 days; read-out: Minimum Inhibitory Concentration, M. avium
# [23] = system: hypoxic M. tuberculosis strain H37Rv; test: NRP bacteria under hypoxia (rapid anaerobic dormancy model); type: cell-based, Mycobacterium tuberculosis
# [24] = in vitro; conditions: mouse, microsomes
# [25] = system: M. fortuitum (ATCC 6841); test: MIC, non-tuberculosis mycobacteria: M. fortuitum; type: cell-based; conditions: Mycolicibacterium fortuitum, ATCC6841, 72 h; broth dilution, visual inspection, 3 days; read-out: Minimum Inhibitory Concentration, M. fortuitum
# [26] = in vitro; conditions: mouse, plasma
# [27] = system: Stenotrophomonas maltophilia (ATCC 13637); test: MIC, spectrum of activity: S.m.; type: cell-based; conditions: ATCC13637, read-out: Minimum Inhibitory Concentration, S.m.
# [28] = system: Bacillus subtilis (ATCC 23857); test: MIC, spectrum of activity: B.s.; type: cell-based; conditions: ATCC23857, read-out: Minimum Inhibitory Concentration, B.s.
# [29] = system: M. tuberculosis Erdman; conditions: mouse, in vivo, po, 25 mg/kg
# [30] = system: M. tuberculosis strain H37Rv (mid-log and nutrient-starved); test: Nutrient starvation model of nonreplicating persisters; type: cell-based, Mycobacterium tuberculosis
# [31] = system: M. bovis strain BCG Pasteur; type: cell-based
smiles,measurement,setting,value
O=[N+]([O-])c1ccc(C2=NOC(c3ccc(N4CCOCC4)cc3)C2)o1 (centres unmarked) [Compound 2],Plasma Protein binding,[1],96.4 ^g %
same,Cytotoxicity IC50,[2],2.9 ^g µg/mL
same,Selective Index (Cytox/MIC),[3],483
same,Solubility (pH 7.4),,9.9 µg/mL
same,MIC,"[4]; Mycobacterium tuberculosis, 168 h, read-out: M. tb. MIC",0.006 µg/mL
O=[N+]([O-])c1cn2c(n1)OC[C@@H](OCc1ccc(OC(F)(F)F)cc1)C2 [PA-824],MBC,[5],>6
same,Classification,[5]; cidal or static from MBC versus MIC,Static (static (MBC/MIC >4))
same,MIC,[6],3.1 to 12.5 µg/mL
same,MIC,[7],> 200 µg/mL
same,MIC,[8],> 200 µg/mL
same,solubility,[9],8.5 µg/mL
same,MIC,[10],> 200 µg/mL
same,MIC,[11],> 200 µg/mL
same,MIC,[12],> 200 µg/mL
same,MIC,[13],3.1 to 25 µg/mL
same,"Minimum Inhibitory Concentration, E.c. ΔtolC",[14],>200 µg/mL
same,MIC,[15],> 200 µg/mL
same,Selective Index (Cytox/MIC),[3],178
same,IC50,[16],69.4 µg/mL
same,MIC in presence of 9a,[17],0.01 to 0.02 µg/mL
same,MIC,"[17]; checkerboard, H37Rv, 7 days",0.2 to 0.8 µg/mL
same,fold decrease of MIC in the presence of 9a,"[17]; checkerboard, H37Rv",~10 fold
same,Type of Interaction,[17]; interaction of the treatment with 9a,Synergy (synergy (FICI ≤0.5))
same,MIC,[18],> 200 µg/mL
same,MIC,[19],> 200 µg/mL
same,MIC,[20],> 200 µg/mL
same,MIC,[21],0.1 µg/mL
same,MIC,[22],> 200 µg/mL
same,% Growth vs. Control,[23],<0.1%
same,killing of hypoxic bacilli,"[23]; 10 µg/mL, NRP-2 bacilli",> 99.9%
same,half-life,[24],8.12 h
same,MIC,"[4]; Mycobacterium tuberculosis, 168 h; read-out: M. tb. MIC",0.39 µg/mL
same,MIC,[4]; Mycobacterium tuberculosis; M. tuberculosis; […]; read-out: MIC,> 1 µM
same,MIC,[25],> 200 µg/mL
same,fraction unbound,[26],0.071
same,MIC,[27],> 200 µg/mL
same,MIC,[28],200 µg/mL
NNC(=O)c1ccncc1 [Isoniazid],FICI with 9a,[17],0.52–2.00
same,MIC in presence of 9a,[17],0.01 to 0.02 µg/mL
same,Type of Interaction,[17],Indifference (key: Synergy: synergy (FICI ≤0.5); Indifference: indifference (FICI >0.5–4.0); Antagonism: antagonism (FICI >4.0))
same,MIC,[17]; H37RV,0.02 µg/mL
same,% Growth vs. Control,[23],29.1–49.1%
same,"Log10CFU (SEM), lungs",[29],4.60 (0.21) Log10CFU
same,"Log10CFU (SEM), spleen",[29],2.61 (0.09) Log10CFU
same,fold less active against nutrient starved bacteria than against actively growing culture,[30],7 fold
same,reduction in viability (killing) of actively growing culture,[30],> 95%
same,PAE,[31],71.8 h
